Measured values: PubChem BioAssay (NCI)
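Exposure lasted 48 hours, with cells grown in 96-well plates and compounds tested at five concentrations. GI50 = concentration required for 50% inhibition of growth. TGI marks complete inhibition of growth.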

The molecules below were run on COLO 205 colon (assay: NCI-60 cell line screen, 48 h).

| SMILES | GI50 | TGI |
| --- | --- | --- |
| N.N.N.N.N.[Cl-].[Co+3].c1ccc(-c2nn[n-]n2)cc1 | > 100 µM | > 100 µM |
| C1COCCN1.C1COCCN1.NC1CCCCC1N.[Cl-].[Pt+2] (stereo not given) | > 100 µM | > 100 µM |
| COC1OC(CBr)C(OC(=O)c2ccccc2)C(O)C1Br (stereo not given) | – | > 100 µM |
| O=C(NC(=O)c1cn(CCN(CCO)C(=O)NCCCCCCNC(=O)N(CCO)CCn2cc(C(=O)NC(=O)OCc3ccccc3)c(=O)[nH]c2=O)c(=O)[nH]c1=O)OCc1ccccc1 | – | > 100 µM |
| CCOC1=C2C(=O)OC(=O)C2C2CCCCC2=C1 (stereo not given) | – | > 100 µM |
| Cc1cc2c(C)nn(Cc3ccccc3)c2c(C(N)=O)c1C | – | > 100 µM |
| C=CCNC(=O)N(CCCC(NC(C)=O)C(=O)NCc1ccccc1)Cc1ccccc1 (stereo not given) | – | > 100 µM |
| c1ccc(C(c2ccccc2)c2cccnc2)cc1 | – | > 100 µM |
| C1=CC=C2NCCCCCCCNC3=CC=CC=CC3=NCCCCCCCN=C2C=C1 | – | > 100 µM |
| COC(=O)/C(=N\NC(=O)C[N+](C)(C)C)C(C(=O)OC)C(=O)C(=O)Nc1ccccc1C(N)=O (stereo not given) | – | > 100 µM |
| O=C1Nc2nc3ccccc3n2N=C2CCCC12 (stereo not given) | – | > 100 µM |
| O=c1c2ccccc2c(=O)n2n1CC=CC2 | – | > 100 µM |
| CC1CN(c2ccc(Cl)cc2)CC(C)OC(=O)O1 (stereo not given) | – | > 100 µM |
| COCC(O)Cn1ccnc1[N+](=O)[O-] (stereo not given) | – | > 100 µM |
| OCC1C(/C=C/c2ccoc2)ON2CCCC12 (stereo not given) | – | > 100 µM |
| O=C1C2C3C=C4c5ccccc5N(c5ccccc5)C4(C2C(=O)N1c1ccc(Cl)cc1)[C@H]1C(=O)N(c2ccc(Cl)cc2)C(=O)[C@@H]31 (stereo not given in full) | – | > 100 µM |
| Cc1ccc([N+](=O)[O-])cc1NC(=O)/C(=N/NC(=S)NN)C1SC(=S)NC1=O (stereo not given) | – | > 100 µM |

The molecules below were run on HOP-62 NSCLC (assay: NCI-60 cell line screen, 48 h).

| SMILES | GI50 | TGI |
| --- | --- | --- |
| N.N.N.N.N.[Cl-].[Co+3].c1ccc(-c2nn[n-]n2)cc1 | > 100 µM | > 100 µM |
| C1COCCN1.C1COCCN1.NC1CCCCC1N.[Cl-].[Pt+2] (stereo not given) | > 100 µM | > 100 µM |
| COC1OC(CBr)C(OC(=O)c2ccccc2)C(O)C1Br (stereo not given) | – | > 100 µM |
| C[C@]12CCC(=O)C=C1CC[C@@H]1C2CC[C@]2(C)Nc3c(cnn3-c3ccccc3)CC12 (stereo not given in full) | – | > 100 µM |
| O=C(NC(=O)c1cn(CCN(CCO)C(=O)NCCCCCCNC(=O)N(CCO)CCn2cc(C(=O)NC(=O)OCc3ccccc3)c(=O)[nH]c2=O)c(=O)[nH]c1=O)OCc1ccccc1 | – | > 100 µM |
| CCOC1=C2C(=O)OC(=O)C2C2CCCCC2=C1 (stereo not given) | – | > 100 µM |
| Cc1cc2c(C)nn(Cc3ccccc3)c2c(C(N)=O)c1C | – | > 100 µM |
| C=CCNC(=O)N(CCCC(NC(C)=O)C(=O)NCc1ccccc1)Cc1ccccc1 (stereo not given) | – | > 100 µM |
| c1ccc(C(c2ccccc2)c2cccnc2)cc1 | – | > 100 µM |
| COC(=O)/C(=N\NC(=O)C[N+](C)(C)C)C(C(=O)OC)C(=O)C(=O)Nc1ccccc1C(N)=O (stereo not given) | – | > 100 µM |
| O=C1Nc2nc3ccccc3n2N=C2CCCC12 (stereo not given) | – | > 100 µM |
| CC1CN(c2ccc(Cl)cc2)CC(C)OC(=O)O1 (stereo not given) | – | > 100 µM |
| COCC(O)Cn1ccnc1[N+](=O)[O-] (stereo not given) | – | > 100 µM |
| OCC1C(/C=C/c2ccoc2)ON2CCCC12 (stereo not given) | – | > 100 µM |
| Cc1cc(NCCCCCCNc2cc(C)nc3cc(N(C)C)ccc23)c2ccc(N(C)C)cc2n1 | – | > 100 µM |
| O=C1C2C3C=C4c5ccccc5N(c5ccccc5)C4(C2C(=O)N1c1ccc(Cl)cc1)[C@H]1C(=O)N(c2ccc(Cl)cc2)C(=O)[C@@H]31 (stereo not given in full) | – | > 100 µM |
| Cc1ccc([N+](=O)[O-])cc1NC(=O)/C(=N/NC(=S)NN)C1SC(=S)NC1=O (stereo not given) | – | > 100 µM |

The molecules below were run on IGROV1 ovarian (assay: NCI-60 cell line screen, 48 h).

| SMILES | GI50 | TGI |
| --- | --- | --- |
| N.N.N.N.N.[Cl-].[Co+3].c1ccc(-c2nn[n-]n2)cc1 | > 100 µM | > 100 µM |
| C1COCCN1.C1COCCN1.NC1CCCCC1N.[Cl-].[Pt+2] (stereo not given) | > 100 µM | > 100 µM |
| COC1OC(CBr)C(OC(=O)c2ccccc2)C(O)C1Br (stereo not given) | – | > 10 µM |
| C[C@]12CCC(=O)C=C1CC[C@@H]1C2CC[C@]2(C)Nc3c(cnn3-c3ccccc3)CC12 (stereo not given in full) | – | > 100 µM |
| O=C(NC(=O)c1cn(CCN(CCO)C(=O)NCCCCCCNC(=O)N(CCO)CCn2cc(C(=O)NC(=O)OCc3ccccc3)c(=O)[nH]c2=O)c(=O)[nH]c1=O)OCc1ccccc1 | – | > 100 µM |
| CCOC1=C2C(=O)OC(=O)C2C2CCCCC2=C1 (stereo not given) | – | > 100 µM |
| Cc1cc2c(C)nn(Cc3ccccc3)c2c(C(N)=O)c1C | – | > 100 µM |
| C=CCNC(=O)N(CCCC(NC(C)=O)C(=O)NCc1ccccc1)Cc1ccccc1 (stereo not given) | – | > 100 µM |
| c1ccc(C(c2ccccc2)c2cccnc2)cc1 | – | > 100 µM |
| COC(=O)/C(=N\NC(=O)C[N+](C)(C)C)C(C(=O)OC)C(=O)C(=O)Nc1ccccc1C(N)=O (stereo not given) | – | > 100 µM |
| O=C1Nc2nc3ccccc3n2N=C2CCCC12 (stereo not given) | – | > 100 µM |
| O=c1c2ccccc2c(=O)n2n1CC=CC2 | – | > 100 µM |
| CC1CN(c2ccc(Cl)cc2)CC(C)OC(=O)O1 (stereo not given) | – | > 100 µM |
| O=C1C2C3C=C4c5ccccc5N(c5ccccc5)C4(C2C(=O)N1c1ccc(Cl)cc1)[C@H]1C(=O)N(c2ccc(Cl)cc2)C(=O)[C@@H]31 (stereo not given in full) | – | > 100 µM |
| Cc1ccc([N+](=O)[O-])cc1NC(=O)/C(=N/NC(=S)NN)C1SC(=S)NC1=O (stereo not given) | – | > 100 µM |

These molecules were tested on M14 melanoma (assay: NCI-60 cell line screen, 48 h).

| SMILES | GI50 | TGI |
| --- | --- | --- |
| N.N.N.N.N.[Cl-].[Co+3].c1ccc(-c2nn[n-]n2)cc1 | > 100 µM | > 100 µM |
| C1COCCN1.C1COCCN1.NC1CCCCC1N.[Cl-].[Pt+2] (stereo not given) | > 100 µM | > 100 µM |
| COC1OC(CBr)C(OC(=O)c2ccccc2)C(O)C1Br (stereo not given) | – | > 100 µM |
| C[C@]12CCC(=O)C=C1CC[C@@H]1C2CC[C@]2(C)Nc3c(cnn3-c3ccccc3)CC12 (stereo not given in full) | – | > 100 µM |
| O=C(NC(=O)c1cn(CCN(CCO)C(=O)NCCCCCCNC(=O)N(CCO)CCn2cc(C(=O)NC(=O)OCc3ccccc3)c(=O)[nH]c2=O)c(=O)[nH]c1=O)OCc1ccccc1 | – | > 100 µM |
| CCOC1=C2C(=O)OC(=O)C2C2CCCCC2=C1 (stereo not given) | – | > 100 µM |
| Cc1cc2c(C)nn(Cc3ccccc3)c2c(C(N)=O)c1C | – | > 100 µM |
| C=CCNC(=O)N(CCCC(NC(C)=O)C(=O)NCc1ccccc1)Cc1ccccc1 (stereo not given) | – | > 100 µM |
| c1ccc(C(c2ccccc2)c2cccnc2)cc1 | – | > 100 µM |
| COC(=O)/C(=N\NC(=O)C[N+](C)(C)C)C(C(=O)OC)C(=O)C(=O)Nc1ccccc1C(N)=O (stereo not given) | – | > 100 µM |
| O=C1Nc2nc3ccccc3n2N=C2CCCC12 (stereo not given) | – | > 100 µM |
| O=c1c2ccccc2c(=O)n2n1CC=CC2 | – | > 100 µM |
| CC1CN(c2ccc(Cl)cc2)CC(C)OC(=O)O1 (stereo not given) | – | > 100 µM |
| COCC(O)Cn1ccnc1[N+](=O)[O-] (stereo not given) | – | > 100 µM |
| OCC1C(/C=C/c2ccoc2)ON2CCCC12 (stereo not given) | – | > 100 µM |
| Cc1cc(NCCCCCCNc2cc(C)nc3cc(N(C)C)ccc23)c2ccc(N(C)C)cc2n1 | – | > 100 µM |
| O=C1C2C3C=C4c5ccccc5N(c5ccccc5)C4(C2C(=O)N1c1ccc(Cl)cc1)[C@H]1C(=O)N(c2ccc(Cl)cc2)C(=O)[C@@H]31 (stereo not given in full) | – | > 100 µM |
| Cc1ccc([N+](=O)[O-])cc1NC(=O)/C(=N/NC(=S)NN)C1SC(=S)NC1=O (stereo not given) | – | > 100 µM |

These molecules were tested on NCI-H460 lung (assay: NCI-60 cell line screen, 48 h).

| SMILES | GI50 | TGI |
| --- | --- | --- |
| N.N.N.N.N.[Cl-].[Co+3].c1ccc(-c2nn[n-]n2)cc1 | > 100 µM | > 100 µM |
| C1COCCN1.C1COCCN1.NC1CCCCC1N.[Cl-].[Pt+2] (stereo not given) | > 100 µM | > 100 µM |
| COC1OC(CBr)C(OC(=O)c2ccccc2)C(O)C1Br (stereo not given) | – | > 100 µM |
| C[C@]12CCC(=O)C=C1CC[C@@H]1C2CC[C@]2(C)Nc3c(cnn3-c3ccccc3)CC12 (stereo not given in full) | – | > 100 µM |
| O=C(NC(=O)c1cn(CCN(CCO)C(=O)NCCCCCCNC(=O)N(CCO)CCn2cc(C(=O)NC(=O)OCc3ccccc3)c(=O)[nH]c2=O)c(=O)[nH]c1=O)OCc1ccccc1 | – | > 100 µM |
| CCOC1=C2C(=O)OC(=O)C2C2CCCCC2=C1 (stereo not given) | – | > 100 µM |
| Cc1cc2c(C)nn(Cc3ccccc3)c2c(C(N)=O)c1C | – | > 100 µM |
| C=CCNC(=O)N(CCCC(NC(C)=O)C(=O)NCc1ccccc1)Cc1ccccc1 (stereo not given) | – | > 100 µM |
